# From patent publication US6488943B1, “Antimicrobial wipes which provide improved immediate germ reduction” (The Procter & Gamble Company, priority 1999, dated 2002)
# Test system: Vibrio fischerio
# Test: Microtox Response Test (bioluminescence of Microtox Acute Toxicity Reagent)
# Format: cell-based
# Settings: pure anionic surfactant; EC50 for 50% decrease of bioluminescence, 5 minutes
# Protocol: Reference: Microtox Manual: A Toxicity Testing Handbook, 1992 Volume I-IV; Microbics Corporation.
# Equipment: Microtox M500 Toxicity Testing Unit; Microbics Corporation Connected to computer for data acquisition and analysis according to above reference.
# 1. Preparation of Sample Stock Solution (Standard Concentration: 1000 ppm)
# The stock solution of the test anionic surfactant sample is prepared and used as a stock solution from which all other dilutions are made. The standard “starting concentration”, the highest concentration to be tested, is 500 ppm. […]
# a) Turn on test unit and allow reagent well temperature to equilibrate at 5.5° C. and incubator block and read well temperature to equilibrate at 15° C. […]
# c) Place the assay cuvette containing reagent which corresponds to the test blank into the read well and press SET. After the cuvette has resurfaced press READ and the value will be captured by the computer.
# d) Similarly read the remaining 7 cuvettes containing reagent when prompted by the computer by pressing the READ button with the correct cuvette in the READ well.
# e) After all 8 initial reading have been taken, transfer 500 μl of the diluted test substance into their corresponding cuvette containing the reagent. […]
row,Compound,Microtox Index
1,CCCCCCCCCCCCOS(=O)(=O)O.N [ammonium lauryl sulfate],1.0 ppm
2,ammonium laureth-3 sulfate,120 ppm
